Experimental data: the supplement of paper PMC7600603

Assays:
[1] = test system: DLD1 NRF2-WT; assay: TC50 cytotoxicity; higher = less toxic; settings: 72 h; CellTox Green cytotoxicity
Method in brief: (§1)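 TC50 and drug sensitivity score, a normalised area under the curve, were derived by logistic dose-response fits of cytotoxicity. The cells were an isogenic DLD1 colorectal cancer pair, NRF2 wild-type or CRISPR-edited, kept in DMEM with 10% FBS. Compounds were tested in 384-well plates at 5 concentrations across a 10,000-fold range for 72 h. Readings with CellTox Green on a Pherastar FS reader were normalised to vehicle wells and 100-μM positive-control wells.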

[2] = test system: DLD1 NRF2-GOF; assay: TC50 cytotoxicity; higher = less toxic; settings: 72 h; CellTox Green cytotoxicity
Method in brief: as §1

[3] = test system: DLD1 NRF2-WT; assay: drug sensitivity score (DSS) cytotoxicity (DSS score); higher = more toxic; extreme values may be limits of the assay; settings: 72 h; CellTox Green cytotoxicity
Method in brief: as §1

[4] = test system: DLD1 NRF2-GOF; assay: as above; settings: 72 h; CellTox Green cytotoxicity
Method in brief: as §1

[5] = test system: DLD1 NRF2-WT; assay: drug sensitivity score (DSS) viability (DSS score); higher = more sensitive; extreme values may be limits of the assay; settings: 72 h; CellTiter-Glo viability
Method in brief: (§2)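 In 384-well plates, library compounds were applied at 5 concentrations spanning a 10,000-fold range to isogenic DLD1 colorectal cancer cells, NRF2 wild-type or CRISPR gain-of-function, maintained in DMEM with 10% FBS. A Pherastar FS reader recorded CellTiter-Glo signal at 72 h, with normalisation to vehicle wells and 100-μM positive-control wells. Curves were fitted with a four-parameter logistic model. EC50 and drug sensitivity score, a normalised area under the curve, came from those curves.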

[6] = test system: DLD1 NRF2-WT; settings: 72 h; CellTiter-Glo viability
Method in brief: as §2

Compound	EC50 viability [6] [µM]	TC50 cytotoxicity [1] [µM]	TC50 cytotoxicity [2] [µM]	drug sensitivity score [3]	drug sensitivity score [4]	drug sensitivity score [5]
CC(C)N(CCCNC(=O)Nc1ccc(C(C)(C)C)cc1)C[C@H]1O[C@@H](n2cc(Br)c3c(N)ncnc32)[C@H](O)[C@@H]1O [SGC0946]		> 10	> 10	0	0	0.9
CC(=O)Nc1cccc(-n2c(=O)n(C3CC3)c(=O)c3c(Nc4ccc(I)cc4F)n(C)c(=O)c(C)c32)c1 [Trametinib]	0.037	> 0.25	> 0.25	0	0	3.1
CC(=O)OC[C@H]1O[C@@H]([S-])[C@H](OC(C)=O)[C@@H](OC(C)=O)[C@@H]1OC(C)=O.CCP(CC)CC.[Au+] [Auranofin]	0.622	0.818	> 2.5	2.3	0	5.5
COc1ccc(CCc2nc3cc(-c4c(C)noc4C)ccc3n2C[C@H](C)N2CCOCC2)cc1Cl [SGC-CBP30]	9.91	> 25	> 25	0.8	0.2	2.2
CC[C@H](CO)Nc1nc(NCc2ccccc2)c2ncn(C(C)C)c2n1 [Seliciclib]	4.17	> 10	> 10	0	0	1.1
CC(C)NC[C@@H](C(=O)N1CCN(c2ncnc3c2[C@H](C)C[C@H]3O)CC1)c1ccc(Cl)cc1 [Ipatasertib]	> 10	> 10	> 10	0	0	1.3
C[C@@H](Oc1cc(-n2cnc3ccc(CN4CCN(C)CC4)cc32)sc1C(N)=O)c1ccccc1C(F)(F)F	0.0033	> 10	> 10	2.4	8	33.6
CO[C@H](C(=O)[C@@H](O)[C@@H](C)O)[C@@H]1Cc2cc3cc(O[C@H]4C[C@@H](O[C@H]5C[C@@H](O)[C@H](O)[C@@H](C)O5)[C@@H](O)[C@@H](C)O4)c(C)c(O)c3c(O)c2C(=O)[C@H]1O[C@H]1C[C@@H](O[C@H]2C[C@@H](O[C@H]3C[C@](C)(O)[C@H](O)[C@@H](C)O3)[C@H](O)[C@@H](C)O2)[C@H](O)[C@@H](C)O1 [Plicamycin]	0.119	> 10	> 10	1.7	0	21.8
C[C@@H](Oc1cc(-c2cnn(C3CCNCC3)c2)cnc1N)c1c(Cl)ccc(F)c1Cl [Crizotinib]	> 1					0
Cc1ccc(NC(=O)c2ccc(CN3CCN(C)CC3)cc2)cc1Nc1nccc(-c2cccnc2)n1 [Imatinib]	4.5	> 10	> 10	0	0	1.2
CC(C)c1c(C(=O)Nc2ccccc2)c(-c2ccccc2)c(-c2ccc(F)cc2)n1CC[C@@H](O)C[C@@H](O)CC(=O)O [Atorvastatin]	3.75					2.5
CC(C)C[C@H](NC(=O)[C@H](Cc1ccccc1)NC(=O)c1cnccn1)B(O)O [Bortezomib]	0.0058	0.0057	0.0117	27.2	23.1	27.1
CC[C@H](C)C(=O)O[C@H]1C[C@H](O)C=C2C=C[C@H](C)[C@H](CC[C@@H](O)C[C@@H](O)CC(=O)O)[C@H]21 [Pravastatin]	> 10	> 10	> 10	0	0	0
CC[C@]1(O)C[C@H]2CN(CCc3c([nH]c4ccccc34)[C@@](C(=O)OC)(c3cc4c(cc3OC)N(C)[C@H]3[C@@](O)(C(=O)OC)[C@H](OC(C)=O)[C@]5(CC)C=CCN6CC[C@]43[C@@H]65)C2)C1 [Vinblastine]	0.0052		> 1	4.1	3.4	22.5
CNC(=O)c1ccccc1Sc1ccc2c(/C=C/c3ccccn3)n[nH]c2c1 [Axitinib]	3.39	> 10	> 10	0.3	0	2.4
COc1cc2c(cc1OC(C)C)[C@H](c1ccc(Cl)cc1)N(c1ccc(N(C)C[C@H]3CC[C@H](N4CCN(C)C(=O)C4)CC3)cc1)C(=O)C2 [NVP-CGM097]	2.38	> 25	> 25	0	0	3.4

The next lines start with results.

EC50 viability [6] [µM]	Compound	TC50 cytotoxicity [1] [µM]	TC50 cytotoxicity [2] [µM]	drug sensitivity score [3]	drug sensitivity score [4]	drug sensitivity score [5]
0.0504	C=CC(=O)N1CC/C(=C\c2ccc(F)c([N+](=O)[O-])c2)C(=O)/C(=C/c2ccc(F)c([N+](=O)[O-])c2)C1 [VLX1570]	0.0677	5.34	21.9	2.7	27.9
0.0334	COc1ccc(-c2nc(N3CCOCC3)c3sc(CN(C)c4ncc(C(=O)NO)cn4)cc3n2)cn1 [CUDC-907]	0.105	0.509	14.6	6.9	29.8
5.03	CC1=NN(c2ccc(C(=O)O)cc2)C(=O)C1=Cc1ccc(-c2cc(C)c(C)cc2[N+](=O)[O-])o1 [C646]	> 25	> 25	0	0	2.8
0.238	O=C(Nc1cccc(NC(=O)c2cccc(O)c2O)c1)c1cccc(O)c1O [MST-312]	> 10	> 10	0	0	10.4
